Laboratory results: PubChem BioAssay (NCI)
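Five concentrations, 48 hours, 96-well plates. At the TGI there is no net growth.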

Assays:
Assay in all cases: NCI tumour cell line growth inhibition, 48 h
SR leukemia = tested on: SR leukemia
CAKI-1 renal = tested on: CAKI-1 renal
U251 CNS = tested on: U251 CNS
UO-31 renal = tested on: UO-31 renal
SF-295 CNS = tested on: SF-295 CNS
NCI-H226 lung = tested on: NCI-H226 lung
RXF 393 renal = tested on: RXF 393 renal
SF-268 CNS = tested on: SF-268 CNS
IGROV1 ovarian = tested on: IGROV1 ovarian
K-562 leukemia = tested on: K-562 leukemia
SK-MEL-28 melanoma = tested on: SK-MEL-28 melanoma
XF 498 CNS = tested on: XF 498 CNS
NCI-H23 lung = tested on: NCI-H23 lung
HOP-62 NSCLC = tested on: HOP-62 NSCLC
SNB-19 CNS = tested on: SNB-19 CNS
NCI-H460 lung = tested on: NCI-H460 lung
HOP-92 NSCLC = tested on: HOP-92 NSCLC
OVCAR-8 ovarian = tested on: OVCAR-8 ovarian
CCRF-CEM leukemia = tested on: CCRF-CEM leukemia
LXFL 529 NSCLC = tested on: LXFL 529 NSCLC
EKVX NSCLC = tested on: EKVX NSCLC
RPMI-8226 leukemia = tested on: RPMI-8226 leukemia
TK-10 renal = tested on: TK-10 renal
HL-60(TB) leukemia = tested on: HL-60(TB) leukemia
SK-OV-3 ovarian = tested on: SK-OV-3 ovarian
KM20L2 colon = tested on: KM20L2 colon
UACC-257 melanoma = tested on: UACC-257 melanoma
HCT-116 colon = tested on: HCT-116 colon
A498 renal = tested on: A498 renal
A549 NSCLC = tested on: A549 NSCLC
LOX IMVI melanoma = tested on: LOX IMVI melanoma
OVCAR-5 ovarian = tested on: OVCAR-5 ovarian
SK-MEL-2 melanoma = tested on: SK-MEL-2 melanoma
M14 melanoma = tested on: M14 melanoma
SF-539 CNS = tested on: SF-539 CNS
KM12 colon = tested on: KM12 colon
COLO 205 colon = tested on: COLO 205 colon
SNB-78 CNS = tested on: SNB-78 CNS
UACC-62 melanoma = tested on: UACC-62 melanoma
NCI-H522 lung = tested on: NCI-H522 lung
MOLT-4 leukemia = tested on: MOLT-4 leukemia
HT29 colon = tested on: HT29 colon
DMS 273 small cell lung = tested on: DMS 273 small cell lung
786-0 renal = tested on: 786-0 renal
ACHN renal = tested on: ACHN renal
SNB-75 CNS = tested on: SNB-75 CNS
OVCAR-3 ovarian = tested on: OVCAR-3 ovarian
SW-620 colon = tested on: SW-620 colon
HCT-15 colon = tested on: HCT-15 colon
SN12C renal = tested on: SN12C renal
OVCAR-4 ovarian = tested on: OVCAR-4 ovarian
HCC-2998 colon = tested on: HCC-2998 colon
SK-MEL-5 melanoma = tested on: SK-MEL-5 melanoma
M19-MEL melanoma = tested on: M19-MEL melanoma
MALME-3M melanoma = tested on: MALME-3M melanoma
DMS 114 small cell lung = tested on: DMS 114 small cell lung
DLD-1 colon = tested on: DLD-1 colon

Measured: TGI

CN(C)C(=S)/N=c1\ss/c(=N\C(=S)N(C)C)n1-c1ccc(Cl)cc1
not listed: OVCAR-4 ovarian | HCC-2998 colon | SK-MEL-5 melanoma | M19-MEL melanoma | MALME-3M melanoma | DMS 114 small cell lung | DLD-1 colon
> 100 µM: all other assays above

Cc1ccc(S(=O)(=O)C2c3nc4ccccc4cc3-c3nc4ccccc4nc32)cc1 (configuration not stated)
not listed: SF-295 CNS | NCI-H226 lung | RXF 393 renal | NCI-H460 lung | HT29 colon
> 100 µM: all other assays above
